{"source": "patent US8883862B2", "about": "“Method for controlled release of parathyroid hormone from cross-linked hyaluronic acid hydrogel” (Kaohsiung Medical University, priority 2012, dated 2014)", "key": {"papain-induced OA": {"system": "papain-induced OA", "experiment": "Papain-induced OA in rat knees, histology of articular cartilage (GAG, type II collagen)", "format": "in vivo, Rats", "conditions": "OA group; intra-articular; PTH(1-34) 10 nM every 3 days, hydrogels every 10 days", "procedure": "Rats were divided into the following 2 groups: OA group (OA induction with or without PTH(1-34) treatment) (n=5), non-OA group (n=5) injected with vehicle without PTH(1-34) treatment and OA induction. The right knees were the study joints. OA was induced in the right knees of rats in the OA groups with intra-articular injections of 20 ul of 4% papain solution and 20 ul of 0.03M cysteine. The injections were given with a 23-gauge needle via the patellar tendon on days 1, 4, and 7 of the example. In the OA group, after OA induction, the right knees were injected intra-articularly with 40 ul of 10 nM PTH(1-34) every 3 days or PTH/CLMH or CLMH every 10 days until rats were sacrificed. In the non-OA group, the same treatments were performed but without OA induction. Rats from each group were sacrificed by CO2 inhalation. Histologic analysis: After rats were sacrificed, the knees were harvested, and the tibia plateaus with articular cartilage were collected and fixed with 10% neutral buffered formalin prior to histologic preparation. The samples were then decalcified in 0.05M EDTA. The decalcified tibia articular samples were paraffin embedded, and […] microsections in the coronary plane were prepared. GAG was stained with Safranin O-fast green (1% Safranin 0 counterstained with 0.75% hematoxylin and then 1% fast green; Sigma) (dark color). […]"}, "[1]": {"system": "MC3T3-E1 (osteoblastic cells)", "experiment": "Bioactivity of released PTH(1-34): cAMP contents in cells", "format": "cell-based", "conditions": "PTH(1-34) released from PTH/CLMH hydrogel at 2, 3, 4, 9, 10 and 11 days; 20 mins incubation", "procedure": "The activity of controlled released PTH(1-34) was determined by measuring cAMP contents in cells treated with released PTH(1-34). For these examples, the MC3T3-E1 (osteoblastic cells) was cultured in phenol red-free α-MEM supplemented with 10% fetal bovine serum and […] ascorbic acid. The Cells were seeded into 24-well plates at a density of 50,000 cells/well. 0.25 mM isobutylmethylxanthine was used to inhibit cAMP degradation and incubated with released PTH(1-34) for 20 mins. The cells were lysed directly in the medium by adding 0.1N HCl. Intracellular cAMP was measured using a commercially available immunoassay kit (cayman) following the manufacturer's instructions.\nStatistical analysis: Three independent cultures for biochemical analysis were tested. Each example was repeated at least three times, and data (expressed as mean±SEM) from a representative example are shown. Statistical significance was evaluated by one-way analysis of variance (ANOVA), and multiple comparisons were performed by Student's t-test. A p<0.05 was considered significant."}, "[2]": {"conditions": "pulmonary route, cited from earlier work"}, "[3]": {"experiment": "Stability of PTH(1-34) under UV exposure (ELISA)", "format": "physicochemical", "conditions": "10 minutes of UV exposure", "procedure": "The hydrogel was fabricated by the photo-cross linking method. Briefly, 20 mg of methacrylated-hyaluronic acid (MeHA) was dissolved in 650 μL of stock solution (0.9% NaCl/4 mM HCl/0.1% BSA solution) and 100 μL of 0.07% (w/v) 12959 (Ciba specialty chemicals, Taiwan) was added to the solution. After complete dissolution, 250 μL of PTH(1-34) stock solution (10^−5 M) was added to the polymer solution and mixed completely. The mixture was transferred into glass syringe and exposed under UV light for 10 minutes. The resulting PTH/CLMH gel was washed with distilled water and then lyophilized. The morphology of the gel was examined using scanning electron microscopy (SEM) after gold coating of the samples on a stub.\nThe encapsulation and release kinetics are as follows: 200 μL of PTH(1-34)-loaded CLMH hydrogel (PTH/CLMH gel) suspended in 1 mL of 0.9% NaCl was crushed completely and collected the supernatant. Concentration of PTH(1-34) on the supernatant was measured using a commercially available PTH(1-34) ELISA kit following the manufacturer's instructions."}}, "note": "Like-named read-outs stand apart in the source and are kept apart here.", "data": [{"smiles": "CC[C@H](C)[C@H](NC(=O)[C@H](CCC(=O)O)NC(=O)[C@H](CO)NC(=O)[C@@H](NC(=O)[C@@H](N)CO)C(C)C)C(=O)N[C@@H](CCC(N)=O)C(=O)N[C@@H](CC(C)C)C(=O)N[C@@H](CCSC)C(=O)N[C@@H](Cc1cnc[nH]1)C(=O)N[C@@H](CC(N)=O)C(=O)N[C@@H](CC(C)C)C(=O)NCC(=O)N[C@@H](CCCCN)C(=O)N[C@@H](Cc1cnc[nH]1)C(=O)N[C@@H](CC(C)C)C(=O)N[C@@H](CC(N)=O)C(=O)N[C@@H](CO)C(=O)N[C@@H](CCSC)C(=O)N[C@@H](CCC(=O)O)C(=O)N[C@@H](CCCN=C(N)N)C(=O)N[C@H](C(=O)N[C@@H](CCC(=O)O)C(=O)N[C@@H](Cc1c[nH]c2ccccc12)C(=O)N[C@@H](CC(C)C)C(=O)N[C@@H](CCCN=C(N)N)C(=O)N[C@@H](CCCCN)C(=O)N[C@@H](CCCCN)C(=O)N[C@@H](CC(C)C)C(=O)N[C@@H](CCC(N)=O)C(=O)N[C@@H](CC(=O)O)C(=O)N[C@H](C(=O)N[C@@H](Cc1cnc[nH]1)C(=O)N[C@@H](CC(N)=O)C(=O)N[C@@H](Cc1ccccc1)C(=O)O)C(C)C)C(C)C", "note": "[PTH(1-34), teriparatide]", "values": [{"measurement": "level of GAG in OA articular cartilage", "setting": "papain-induced OA", "value": "could reverse papain-induced OA changes by increasing GAG level"}, {"measurement": "expression of cAMP", "setting": "[1]", "value": "increased expression of cAMP"}, {"measurement": "bioavailability", "setting": "[2]; inhalation of dry powders", "value": 34, "unit": "%"}, {"measurement": "bioavailability", "setting": "[2]; intratracheal instillation", "value": 40, "unit": "%"}, {"measurement": "stability of PTH(1-34) under UV exposure", "setting": "[3]", "value": "no significant adverse effect"}]}]}
